US7763656B2, “Use of Acetylamino benzoic acid compounds for nonsense suppression and the treatment of disease” (PTC Therapeutics, Inc., priority 2002, dated 2010)

Tests used:
[1] = test system: luciferase reporter construct containing a UGA premature termination codon stably transfected in 293T Human Embryonic Kidney cells; experiment: cell-based luciferase reporter assay (UGA premature termination codon); conditions: for Activity: ranking combining potency (minimum concentration to produce protein) and efficacy (maximum protein produced), 293T cells, UGA luciferase reporter, gentamicin internal standard
Protocol: Melting points in Table 1 were obtained on an Electrothermal MeltTemp apparatus and are uncorrected. Activity measurements in Table 1 were performed in a cell-based luciferase reporter assay (as described in Section 4.2) comprising a luciferase reporter construct containing a UGA premature termination codon that was stably transfected in 293T Human Embryonic Kidney cells. Gentamicin, a small molecule known to allow readthrough of premature termination codons, was used as an internal standard. Activity measurements are based on the qualitative relation between the minimum concentration of compound required to produce a given protein in a cell (potency) and the maximum amount of protein produced by the cell (efficacy). Potency and efficacy activities are ranked as either extremely high, very high or significant. The combination of these activities is used to determine the activity ranking.
(§1) Two assays were developed for use in high throughput screens to identify small molecules that promote nonsense suppression. Each assay utilized luciferase because it is a functional reporter gene assay (light is only produced if the protein is functional) and it is extremely sensitive (Light intensity is proportional to luciferase concentration in the nM range). The first assay is a cell-based luciferase reporter assay and the second is a biochemical assay consisting of rabbit reticulocyte lysate and a nonsense-containing luciferase reporter mRNA. In the cell-based assay, a luciferase reporter construct containing a UGA premature termination codon was stably transfected in 293T Human Embryonic Kidney cells. In the biochemical assay, mRNA containing a UGA premature termination codon was used as a reporter in an in vitro translation reaction using rabbit reticulocyte lysate supplemented with tRNA, hemin, creatine kinase, amino acids, KOAc, Mg(OAc)2, and creatine phosphate. […] Synthetic mRNA was prepared in vitro using the T7 promoter and the MegaScript in vitro transcription kit (Ambion).
To determine whether compounds also function in vivo, a stable cell line harboring the UGA nonsense-containing luciferase gene was treated with selected compounds. Cells were grown in standard medium supplemented with 1% penicillin-streptomycin (P/S) and 10% fetal bovine serum (FBS) to 70% confluency and split 1:1 the day before treatment. On the following day, cells were trypsinized and 40,000 cells were added to each well of a 96-well tissue culture dish. Serial dilutions of each compound were prepared to generate a six-point dose response curve spanning 2 logs (30 μM to 0.3 μM). The final concentration of the DMSO solvent remained constant at 1% in each well. Cells treated with 1% DMSO served as the background standard, and cells treated with gentamicin served as a positive control.

[2] = test system: nonsense-containing luciferase reporter mRNA (UGA premature termination codon) in rabbit reticulocyte lysate; experiment: biochemical luciferase nonsense suppression assay (in vitro translation); conditions: internal standard
Excerpt: as §1

[3] = test system: tripeptidyl-peptidase 1 (TPP-I) in patient-derived LINCL cell line; conditions: patient-derived cell line compound heterozygous for Arg208Stop and another nonsense mutation; maximal; cited from earlier work
[4] = test system: dystrophin premature stop codon in mdx mice; conditions: cited from earlier work

Compound | melting point [°C] | also measured
Cc1cc(OCC(=O)Nc2cccc(C(=O)O)c2C)ccc1C(C)C [Compound 59, 3-[2-(4-Isopropyl-3-methyl-phenoxy)-acetylamino]-2-methyl-benzoic acid] | 148 to 171 | 
CCOC(=O)/C=C/c1ccc(OCC(=O)Nc2cccc(C(=O)O)c2)cc1 [Compound 60, 3-{2-[4-(2-Ethoxycarbonyl-vinyl)-phenoxy]-acetylamino}-benzoic acid] | 202 to 203 | 
O=C(COc1ccc(OCc2ccccc2)cc1)Nc1cccc(C(=O)O)c1 [Compound 61, 3-[2-(4-Benzyloxy-phenoxy)-acetylamino]-benzoic acid] | 208 to 210 | 
N#Cc1ccc(OCC(=O)Nc2cccc(C(=O)O)c2)cc1 [Compound 62, 3-[2-(4-Cyano-phenoxy)-acetylamino]-benzoic acid] | 210 to 213 | 
O=C(COc1ccc(Nc2ccc([N+](=O)[O-])cn2)cc1)Nc1cccc(C(=O)O)c1 [Compound 63, 3-{2-[4-(5-Nitro-pyridin-2-ylamino)-phenoxy]-acetylamino}-benzoic acid] | 284 to 285 | 
O=C(COc1ccc(NC(=O)c2ccccc2)cc1)Nc1cccc(C(=O)O)c1 [Compound 64, 3-[2-(4-Benzoylamino-phenoxy)-acetylamino]-benzoic acid] | 260 to 262 | 
O=C(COc1ccc(Nc2ccccc2)cc1)Nc1cccc(C(=O)O)c1 [Compound 65, 3-[2-(4-Phenylamino-phenoxy)-acetylamino]-benzoic acid] | 214 to 215 | 
O=C(COc1cccc(Nc2ccccc2)c1)Nc1cccc(C(=O)O)c1 [Compound 66, 3-[2-(3-Phenylamino-phenoxy)-acetylamino]-benzoic acid] | 189 to 191 | 
O=C(COc1ccc(Nc2ccc([N+](=O)[O-])cc2[N+](=O)[O-])cc1)Nc1cccc(C(=O)O)c1 [Compound 67, 3-{2-[4-(2,4-Dinitro-phenylamino)-phenoxy]-acetylamino}-benzoic acid] | 237 to 238 | 
O=C(COc1ccc(Oc2ccc(C(F)(F)F)cc2)cc1)Nc1cccc(C(=O)O)c1 [Compound 68, 3-{2-[4-(4-Trifluoromethyl-phenoxy)-phenoxy]-acetylamino}-benzoic acid] | 189 to 190 | 
O=C(COc1ccc(Cc2ccccc2)cc1)Nc1cccc(C(=O)O)c1 [Compound 69, 3-[2-(4-Benzyl-phenoxy)-acetylamino]-benzoic acid] | 205 to 209 | 
O=C(COc1ccc(Oc2ccccc2)cc1)Nc1cccc(C(=O)O)c1 [Compound 70, 3-[2-(4-Phenoxy-phenoxy)-acetylamino]-benzoic acid] | 202 to 205 | 
O=C(COc1ccc(COCCCCN2C(=O)c3ccccc3C2=O)cc1)Nc1cccc(C(=O)O)c1 [Compound 73, 3-(2-{4-[4-(1,3-Dioxo-1,3-dihydro-isoindol-2-yl)-butoxymethyl]-phenoxy}-acetylamino)-benzoic acid] | 95 to 100 | Activity [1]: 0
gentamicin |  | luciferase activity ([1]; cell-based assay, internal standard): increased luciferase activity; luciferase activity [2]: increased luciferase activity; TPP-I restored [3]: approximately 7 % of normal levels of TPP-I
gentamicin sulfate |  | suppression of translational termination at premature stop codon (dystrophin) [4]: full length dystrophin

Second part, led by results:

melting point [°C] | Compound | also measured
233 to 236 | O=C(COc1ccc([N+](=O)[O-])cn1)Nc1cccc(C(=O)O)c1 [Compound 71, 3-[2-(5-Nitro-pyridin-2-yloxy)-acetylamino]-benzoic acid] | Activity [1]: 0
238 to 240 | O=C(COc1ccc(CN2C(=O)c3ccccc3C2=O)cc1)Nc1cccc(C(=O)O)c1 [Compound 72] | 
194 to 196 | Cc1cc(C)nc(SCc2ccc(OCC(=O)Nc3cccc(C(=O)O)c3)cc2)n1 [Compound 74, 3-{2-[4-(4,6-Dimethyl-pyrimidin-2-ylsulfanylmethyl)-phenoxy]-acetylamino}-benzoic acid] | Activity [1]: 0
192 to 193 | O=C(O)c1cccc(N2CCC(Oc3ccc(Cl)cc3)C2=O)c1 (centres unmarked) [Compound 75, 3-[3-(4-Chloro-phenoxy)-2-oxo-pyrrolidin-1-yl]-benzoic acid] | 
196 to 197 | O=C(O)c1cccc(N2CCC(Oc3ccc(Br)cc3)C2=O)c1 (centres unmarked) [Compound 76, 3-[3-(4-Bromo-phenoxy)-2-oxo-pyrrolidin-1-yl]-benzoic acid] | 
245 to 247 | N#CCc1ccc(OCC(=O)Nc2cccc(C(=O)O)c2)cc1 [Compound 77, 3-[2-(4-Cyanomethyl-phenoxy)-acetylamino]-benzoic acid] | Activity [1]: 0
267 to 268 | O=C(COc1ccc(Cc2nn[nH]n2)cc1)Nc1cccc(C(=O)O)c1 [Compound 78, 3-{2-[4-(2H-Tetrazol-5-ylmethyl)-phenoxy]-acetylamino}-benzoic acid] | 
170 to 171 | CC(C)c1ccc(COC2CCN(c3cccc(C(=O)O)c3)C2=O)cc1 (centres unmarked) [Compound 79, 3-[3-(4-Isopropyl-benzyloxy)-2-oxo-pyrrolidin-1-yl]-benzoic acid] | 
207 to 210 | O=C(COc1ccc(Cc2nnc(-c3ccccc3)o2)cc1)Nc1cccc(C(=O)O)c1 [Compound 80, 3-{2-[4-(5-Phenyl-[1,3,4]oxadiazol-2-ylmethyl)-phenoxy]-acetylamino}-benzoic acid] | Activity [1]: 0
178 to 180 | O=C(O)c1cccc(N2CCC(Oc3ccc([N+](=O)[O-])cc3)C2=O)c1 (centres unmarked) [Compound 81, 3-[3-(4-Nitro-phenoxy)-2-oxo-pyrrolidin-1-yl]-benzoic acid] | Activity [1]: 0
198 to 201 | COc1ccc(OC2CCN(c3cccc(C(=O)O)c3)C2=O)cc1 (centres unmarked) [Compound 82, 3-[3-(4-Methoxy-phenoxy)-2-oxo-pyrrolidin-1-yl]-benzoic acid] | Activity [1]: 0
194 to 195 | CCc1ccc(OC2CCN(c3cccc(C(=O)O)c3)C2=O)cc1 (centres unmarked) [Compound 83, 3-[3-(4-Ethyl-phenoxy)-2-oxo-pyrrolidin-1-yl]-benzoic acid] | 
185 to 187 | Cc1ccc(OC2CCN(c3cccc(C(=O)O)c3)C2=O)cc1 (centres unmarked) [Compound 84, 3-[3-(4-Methyl-phenoxy)-2-oxo-pyrrolidin-1-yl]-benzoic acid] | 
190 to 191 | Cc1c(F)cc(OC2CCN(c3cccc(C(=O)O)c3)C2=O)c(F)c1F (centres unmarked) [Compound 85, 3-[2-Oxo-3-(2,3,5-trifluoro-4-methyl-phenoxy)-pyrrolidin-1-yl]-benzoic acid] | 
190 to 191 | O=C(O)c1cccc(N2CCC(Oc3ccc(OC(F)(F)F)cc3)C2=O)c1 (centres unmarked) [Compound 86, 3-[2-Oxo-3-(4-trifluoromethoxy-phenoxy)-pyrrolidin-1-yl]-benzoic acid] | 
134 to 138 | Cc1cc(OC2CCN(c3cccc(C(=O)O)c3)C2=O)cc(C(C)C)c1 (centres unmarked) [Compound 87, 3-[3-(3-Isopropyl-5-methyl-phenoxy)-2-oxo-pyrrolidin-1-yl]-benzoic acid] | 
238 to 241 | CC(C)(C)c1ccc(OC2CCN(c3cccc(C(=O)O)c3)C2=O)cc1 (centres unmarked) [Compound 88, 3-[3-(4-tert-Butyl-phenoxy)-2-oxo-pyrrolidin-1-yl]-benzoic acid] | Activity [1]: 0
201 to 205 | Cc1ccc(OC2CCN(c3cccc(C(=O)O)c3)C2=O)cc1C (centres unmarked) [Compound 89, 3-[3-(3,4-Dimethyl-phenoxy)-2-oxo-pyrrolidin-1-yl]-benzoic acid] | 
174 to 175 | Cc1cc(OCC(=O)Nc2cc(C(=O)O)ccc2Cl)ccc1C(C)C [Example 4, 4-CHLORO-3-[2-(4-ISOPROPYL-3-METHYL-PHENOXY)-ACETYLAMINO]-BENZOIC ACID] | 
